US11266715B2, “C3A receptor agonists for use against ischemic brain injury, stroke, traumatic brain injury, spinal cord injury and neurodegenerative disorders” (priority 2016, dated 2022)

Legend:
[1] = test system: WT mice subjected to photothrombotic stroke in the motor cortex; assay: Infarct volume after photothrombotic stroke, intranasal treatment; assay type: in vivo, mouse; settings: intranasal C3a daily days 7-21 post-stroke vs PBS; P=0.429
Method: Cortical photothrombosis was induced using the Rose Bengal method (Lee et al., 2007; Watson et al., 1985) with some modifications. Anesthesia was induced with isoflurane (Forene®, Abbott) in air and oxygen (1:1) initially at 5% and reduced to 2.5% during the surgical procedure. Body temperature was monitored by a rectal probe and maintained at 37° C. using a homeothermic control unit (Harvard Apparatus). Anesthetized mice were placed in a stereotaxic frame, the skull was exposed through a midline scalp incision and Rose Bengal (200 μl, 10 mg/ml solution in sterile saline, Sigma) was injected intraperitoneally. […] Mice were provided with moist mashed food placed on the floor of the home cage and their weight was monitored daily for 7 days after surgery. […]
Purified human C3a peptide (Complement Technologies) was diluted in sterile phosphate buffered saline (PBS) to a concentration of 200 nM and a total of 20 μl (10 μl/nostril; corresponding to approximately 1.13 μg/kg body weight) of peptide solution or PBS was given intranasally to awake, hand-restrained mice held in a supine position. […] For the assessment of potential systemic anaphylactic response due to intranasal C3a inoculation, body temperature was monitored using a rectal temperature probe (Harvard Apparatus) inserted approximately 4 mm into the rectum of awake mice restrained by the scruff. […]

synapsin I+ puncta = assay: Synapsin I immunostaining of cortex 21 days after stroke; assay type: in vivo, mouse; settings: for larger size of synapsin I+ puncta vs PBS-treated mice: ipsilesional motor cortex
Method: For immunofluorescent evaluation, sections were deparaffinized, heated three times for 5 min in a microwave oven in 0.01 M citric buffer (pH 6.0), and blocked in PBS containing 0.05% Tween-20 (Sigma) and 1% in Bovine serum albumin (BSA, Sigma) for GAP-43 and synapsin I staining, 3% normal goat serum for VGLUT1 staining or 4% normal donkey serum for GAP-43 double stainings. Goat anti-synapsin la/b antibody (1:150; Santa Cruz, sc-7379) was followed by biotin-conjugated donkey anti-goat immunoglobulin (Ig) secondary antibody (1:200; Jackson Research Lab, 705-065-147) and Cy3-conjugated streptavidin (1:100; Sigma). Guinea pig anti-VGLUT1 (1:500; Millipore, AB5905) was followed by Alexa Fluor 488 goat anti-guinea pig Ig (1:500; Molecular Probes, A11073). For single staining, mouse anti-GAP-43 antibody (1:1000; Millipore, MAB347), was followed by biotinylated rabbit anti-mouse Ig secondary antibody (1:200; Dako, E0354) and Cy3-conjugated streptavidin (1:100; Sigma). […]
Highest signal intensity single plane images of immunostained sections were obtained by laser scanning confocal microscope (LSM TCS SP2, Leica Microsystems, ×63/NA 1.3 objective for synapsin I and GAP-43; and LSM 700, Carl Zeiss for VGLUT1 ×40/NA 1.3) at 1024×1024 pixels resolution. […] Three standard sections per animal in 160 μm intervals were analysed. […]
Single-stained images were analysed using MetaMorph® software (Molecular Devices, ver. 2.8.5) to obtain number, average size and intensity of positive punctuate structures per image. […] An experimenter blinded to experimental group performed all image acquisitions and quantifications.

C3a: Purified human C3a peptide (Complement Technologies), C3a receptor agonist, amino acid sequence SEQ ID NO: 1
infarct volume [1]: no effect on infarct volume
increase in density of synapsin I+ puncta (synapsin I+ puncta; contralesional somatosensory cortex, P=0.030): 20%
larger size of synapsin I+ puncta vs PBS-treated mice (synapsin I+ puncta; deep layers, P<0.0001): 8.1%
larger size of synapsin I+ puncta vs PBS-treated mice (synapsin I+ puncta; superficial layers, P=0.0004): 9.7%
